According to patent EP3502102A1, “STING INHIBITORS” (ECOLE POLYTECHNIQUE FEDERALE DE LAUSANNE (EPFL), priority 2017, dated 2019):
Positions count from the first letter of the chain named.

Tests used:
Flag-STING [1] = biological target: T1, Flag-STING (Mus musculus, UniProt Q3TBT3); assay: Protein mass spectrometry of immunoprecipitated Flag-STING; format: binding; conditions: Flag-STING; 1 µM, 30min
T1 construct: expressed in transfected cells; host or cells: HEK293T (lentiviral transduction, induced overnight)
T1 sequence (Q3TBT3 1-378): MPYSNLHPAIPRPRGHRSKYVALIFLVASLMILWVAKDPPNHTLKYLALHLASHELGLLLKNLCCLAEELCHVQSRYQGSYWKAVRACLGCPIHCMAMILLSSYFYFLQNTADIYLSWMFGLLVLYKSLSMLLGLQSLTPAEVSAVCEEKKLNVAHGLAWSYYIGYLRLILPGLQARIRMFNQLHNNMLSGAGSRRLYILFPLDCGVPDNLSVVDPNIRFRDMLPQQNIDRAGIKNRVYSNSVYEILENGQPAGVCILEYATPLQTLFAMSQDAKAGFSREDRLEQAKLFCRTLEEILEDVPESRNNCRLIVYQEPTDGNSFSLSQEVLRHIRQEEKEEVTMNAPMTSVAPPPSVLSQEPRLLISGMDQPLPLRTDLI

Flag-STING [2] = biological target: T2, Flag-STING (Mus musculus, UniProt Q3TBT3, C91S); assay: as above; format: binding; conditions: Flag-STING C91S; 1µM
T2 construct: expressed in transfected cells; host or cells: HEK293T (lentiviral transduction, induced overnight)
T2 sequence (Q3TBT3 1-378 C91S): T1 sequence (Q3TBT3 1-378) with C91S

Solubility (comparison) = format: physicochemical
[3] = mouse, in vivo, ip
STING = biological target: T3, STING (Mus musculus, UniProt Q3TBT3); assay: High-throughput screen and secondary screen in HEK293T cells expressing mCherry-STING, cdG-Syn versus RIG-I; format: cell-based; set-up: expressed in transfected cells; host or cells: HEK293T; conditions: primary screen and counter-screen; library compounds 10 µM
T3 sequence (Q3TBT3 1-378): T1 sequence (Q3TBT3 1-378)
Experimental: Reporter activity was measured 16 h after compound treatment. A nonlinear regression analysis was performed. […] Circles indicate substitutes compared to C-176. d, e, Chemical compounds from ([…]) in conjunction with IFN-• luciferase reporter, respectively. b, e, f, Values of inhibitor-treated cells were normalized to DMSO-treated cells. […] Cytokine levels were normalized to DMSO-treated control cells. A nonlinear regression analysis was performed for cGAMP stimulation. b, c, BMDMs were pre-treated with C-178 (0.25 µM) and stimulated with cGAMP, cyclic di-GMP, CMA, 90mer dsDNA or LPS for 3 h. The induction of Ifnb1 mRNA levels was assessed by RT-qPCR. d, Heatmaps of RNA sequencing analysis of BMDMs treated with DMSO or CMA and with or without addition of C-178. […] Reporter activity was measured 16 h after transfection and values were normalized to DMSO-treated control cells. c, BMDMs were treated with C-178 (0.25 µM) for 1 h, washed or left untreated and after an additional hour stimulated with cGAMP. […] Flag-STING was immunoprecipitated from whole cell lysate and analysed by autoradiography. In parallel, cell lysates were analysed by immunoblotting for p-TBK1 and STING. d, HEK293T cells expressing STING were treated as indicated (C-178 (1 µM)) and stimulated with CMA for 1.5 h. […] Depicted genes were measured by RT-qPCR.

O=C(Nc1ccc(I)cc1)c1ccc([N+](=O)[O-])o1 [C-176, N-(4-iodophenyl)-5-nitro-2-furamide]
covalent modification of STING, mass shift (Flag-STING [1]): irreversibly modify STING | covalent binding to STING-C91S (Flag-STING [2]): absence of covalent binding | solubility relative to C-178 (Solubility (comparison)): improved solubility | serum half-life [3]: short | serum concentration of type I IFNs (Trex1 KO mice; TREX1 KO mice, compared to vehicle, 11 days): significant decrease | histological analysis of the heart (Trex1 KO mice; TREX1 KO mice, 11 days): decreased cellularity | overt toxicity (weight changes) (Trex1 KO mice; mouse, in vivo): no signs of overt toxicity | IFN signal in response to cdG-Syn/STING versus RIG-I (STING): selectively reduced the IFN signal in response to cdG-Syn/STING but not to RIG-I
